Test results taken from US7902371B2, “(1S,5S)-3-(5,6-dichloropyridin-3-yl)-3,6-diazabicyclo[3.2.0]heptane benzenesulfonate” (Abbott Laboratories, priority 2004, dated 2011).

Experiments:
Format in all cases: physicochemical
[1] = thermodynamic based polymorph screen; settings: for new crystal forms / polymorphs detected: besylate suspended in different solvents, three months
Description: A thermodynamic based polymorph screen was conducted with crystalline (1S,5S)-3-(5,6-dichloropyridin-3-yl)-3,6-diazabicyclo[3.2.0]heptane benzenesulfonate. The benzenesulfonate salt was suspended in different solvents including water, ethanol, acetonitrile, methanol, N,N-dimethylformamide, ethyl acetate, 1,4-dioxane, chloroform, pyridine, nitromethane, PEG 400 and […] water/methanol. […] This difference between the benzenesulfonate and 4-methylbenzenesulfonate salts is unexpected considering the structural similarities of the two acids. The lack of different physical forms is an advantage to chemical and physical processing operations.

[2] = intrinsic dissolution rate at 37° C.
[3] = solid state stability at 40° C. in the dark at 75% relative humidity; settings: 75% RH
Description: Crystalline (1S,5S)-3-(5,6-dichloropyridin-3-yl)-3,6-diazabicyclo[3.2.0]heptane benzenesulfonate was tested for solid state stability at 40° C. in the dark at 75% relative humidity.

[4] = hygroscopicity (relative humidity adsorption/desorption isotherms); settings: relative to acetate, citrate, maleate, methanesulfonate, 4-methylbenzenesulfonate and sulfate salts, FIGS. 1-7
Description: Relative humidity isotherms were collected using a VTI SGA-100 Symmetric Vapor Sorption Analyzer. About 2 to 30 mg of sample is added to the system. The relative humidity is held constant at each step until a constant weight equilibrium is achieved or a maximum of six hours per step.

## Cc1ccc(S(=O)(=O)O)cc1.Clc1cc(N2C[C@@H]3CN[C@@H]3C2)cnc1Cl [4-methylbenzenesulfonate salt, (1S,5S)-3-(5,6-dichloropyridin-3-yl)-3,6-diazabicyclo[3.2.0]heptane 4-methylbenzenesulfonate]
[1]
  unique crystal forms isolated/characterized: three unique crystal forms
  new crystal forms / polymorphs detected: multiple polymorphs were discovered

## Clc1cc(N2C[C@@H]3CN[C@@H]3C2)cnc1Cl.O=S(=O)(O)c1ccccc1 [(1S,5S)-3-(5,6-dichloropyridin-3-yl)-3,6-diazabicyclo[3.2.0]heptane Benzenesulfonate]
[2]; pH 1.0
  intrinsic dissolution rate: 8.5 mg/min·cm^2
[2]; pH 6.8
  intrinsic dissolution rate: 10.1 mg/min·cm^2
[3]; 0 week
  % remaining: 99.72 ± 0.56%
[3]; 1 week
  % remaining: 100.66 ± 0.51%
[3]; 2 week
  % remaining: 99.47 ± 1.72%
[3]; 4 week
  % remaining: 100.22 ± 0.59%
[3]; 6 week
  % remaining: 100.53 ± 0.20%
[3]; 8 week
  % remaining: 100.93 ± 0.37%
[3]; 12 week
  % remaining: 100.84 ± 0.47%
[4]
  hygroscopicity: lower hygroscopicity relative to other salts
[1]
  unique crystal forms isolated/characterized: only one
  new crystal forms / polymorphs detected: No new crystal forms were detected

## O=C(O)[C@H](O)[C@@H](O)C(=O)O [(L)-tartrate]
[1]
  new crystal forms / polymorphs detected: multiple polymorphs were discovered

## Clc1cc(N2C[C@@H]3CN[C@@H]3C2)cnc1Cl.O=S(=O)(O)O [sulfate, (1S,5S)-3-(5,6-dichloropyridin-3-yl)-3,6-diazabicyclo[3.2.0]heptane sulfate]
[1]
  new crystal forms / polymorphs detected: multiple polymorphs were discovered
